Results from ChEMBL document CHEMBL3885881, “DrugMatrix”.

Species: Rattus norvegicus
Experiment: DrugMatrix - Regimen: Daily Repeat
Format: toxicity, organism-based, Sprague-Dawley
Design: regimen Daily Repeat, gender Male, age 6-8 weeks
Settings: in vivo, po, 0 mg/kg, route oral GAVAGE, dose level Control, vehicle .5 % CMC; for ABSOLUTE BASOPHIL / ABSOLUTE EOSINOPHIL / ABSOLUTE LYMPHOCYTE / ABSOLUTE MONOCYTE / ABSOLUTE SEGMENTED NEUTROPHIL / BASOPHIL / EOSINOPHIL / ERYTHROCYTE COUNT / HEMATOCRIT / HEMOGLOBIN / LEUKOCYTE COUNT / LYMPHOCYTE / MEAN CORPUSCULAR HEMOGLOBIN / MEAN CORPUSCULAR HEMOGLOBIN CONCENTRATION / MEAN CORPUSCULAR VOLUME / MONOCYTE / NEUTROPHIL / NUCLEATED RED BLOOD CELLS / PLATELET COUNT: tissue Blood
[1] = 72 h, tissue Plasma, time 3 day
[2] = 120 h, tissue Plasma, time 5 day

## ClC(Br)Br [DIBROMOCHLOROMETHANE]
72 h, time 3 day
  ABSOLUTE BASOPHIL: 0 CELLS/uL
  ABSOLUTE EOSINOPHIL: 279.83 CELLS/uL
  ABSOLUTE LYMPHOCYTE: 13152.5 CELLS/uL
  ABSOLUTE MONOCYTE: 1013.83 CELLS/uL
  ABSOLUTE SEGMENTED NEUTROPHIL: 2420.5 CELLS/uL
  BASOPHIL: 0%
  EOSINOPHIL: 1.67%
  ERYTHROCYTE COUNT: 5.26 x10E6/uL
  HEMATOCRIT: 32.22%
  HEMOGLOBIN: 12.02 G/DL
  LEUKOCYTE COUNT: 16.87 x10E3/uL
  LYMPHOCYTE: 77.83%
  MEAN CORPUSCULAR HEMOGLOBIN: 22.93 pg
  MEAN CORPUSCULAR HEMOGLOBIN CONCENTRATION: 37.32 G/DL
  MEAN CORPUSCULAR VOLUME: 61.4 fL
  MONOCYTE: 6%
  NEUTROPHIL: 14.5%
  NUCLEATED RED BLOOD CELLS: 0 /100WBC
  PLATELET COUNT: 1122.17 x10E3/uL
[1]
  ALANINE AMINOTRANSFERASE: 55.67 u/L
  ALBUMIN: 4.35 G/DL
  ALKALINE PHOSPHATASE: 362.67 u/L
  ASPARTATE AMINOTRANSFERASE: 96 u/L
  BLOOD UREA NITROGEN: 18 mg/dL
  CARBON DIOXIDE: 27.5 mmol/L
  CHLORIDE: 100.17 MEQ/L
  CHOLESTEROL: 74.5 mg/dL
  CREATININE: 0.17 mg/dL
  GLUCOSE: 141.67 mg/dL
  LACTATE DEHYDROGENASE: 682.5 u/L
  LIPASE: 10 u/L
  PHOSPHORUS: 11.5 mg/dL
  POTASSIUM: 6.41 MEQ/L
  SODIUM: 141.2 MEQ/L
  TOTAL BILIRUBIN: 0.18 mg/dL
  TOTAL PROTEIN: 5.88 G/DL
  URIC ACID: 1.4 mg/dL
120 h, time 5 day
  ABSOLUTE BASOPHIL: 0 CELLS/uL
  ABSOLUTE EOSINOPHIL: 18.5 CELLS/uL
  ABSOLUTE LYMPHOCYTE: 8146.83 CELLS/uL
  ABSOLUTE MONOCYTE: 204.83 CELLS/uL
  ABSOLUTE SEGMENTED NEUTROPHIL: 1329.83 CELLS/uL
  BASOPHIL: 0%
  EOSINOPHIL: 0.17%
  ERYTHROCYTE COUNT: 5.37 x10E6/uL
  HEMATOCRIT: 33.17%
  HEMOGLOBIN: 12.07 G/DL
  LEUKOCYTE COUNT: 9.7 x10E3/uL
  LYMPHOCYTE: 85.33%
  MEAN CORPUSCULAR HEMOGLOBIN: 22.52 pg
  MEAN CORPUSCULAR HEMOGLOBIN CONCENTRATION: 36.42 G/DL
  MEAN CORPUSCULAR VOLUME: 61.78 fL
  MONOCYTE: 1.83%
  NEUTROPHIL: 12.67%
  NUCLEATED RED BLOOD CELLS: 0 /100WBC
  PLATELET COUNT: 907.5 x10E3/uL
[2]
  ALANINE AMINOTRANSFERASE: 58.5 u/L
  ALBUMIN: 4.4 G/DL
  ALKALINE PHOSPHATASE: 377.67 u/L
  ASPARTATE AMINOTRANSFERASE: 140.33 u/L
  BLOOD UREA NITROGEN: 15.33 mg/dL
  CARBON DIOXIDE: 32.17 mmol/L
  CHLORIDE: 100 MEQ/L
  CHOLESTEROL: 71.83 mg/dL
  CREATININE: 0.18 mg/dL
  GLUCOSE: 185 mg/dL
  LACTATE DEHYDROGENASE: 241.5 u/L
  LIPASE: 9.5 u/L
  PHOSPHORUS: 13.02 mg/dL
  POTASSIUM: 6.45 MEQ/L
  SODIUM: 143.45 MEQ/L
  TOTAL BILIRUBIN: 0.22 mg/dL
  TOTAL PROTEIN: 6.1 G/DL
